32 compounds from patent EP2530078A1, “THIAZOLE DERIVATIVE” (Takeda Pharmaceutical Company Limited, priority 2010, dated 2011) can be followed below.

Counter-ions that a name gives are not always drawn.

The first assay deals with T1, human GPR52 (Homo sapiens, UniProt Q9Y2T5).
T1 construct: expressed in transfected cells; host or cells: CHO(dhfr-) cells
T1 sequence (Q9Y2T5 whole entry): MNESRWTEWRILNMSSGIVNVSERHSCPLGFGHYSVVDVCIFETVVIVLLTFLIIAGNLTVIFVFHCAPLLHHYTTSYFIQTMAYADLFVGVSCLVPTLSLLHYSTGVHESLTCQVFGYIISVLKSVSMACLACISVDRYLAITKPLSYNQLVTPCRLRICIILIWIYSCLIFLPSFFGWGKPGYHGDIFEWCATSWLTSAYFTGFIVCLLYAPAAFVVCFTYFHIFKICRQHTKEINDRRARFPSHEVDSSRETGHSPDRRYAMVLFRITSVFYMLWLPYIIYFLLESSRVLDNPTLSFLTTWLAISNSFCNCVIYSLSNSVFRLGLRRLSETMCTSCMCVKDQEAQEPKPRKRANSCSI
Put plainly: Increase of intracellular cAMP concentration in human GPR52-expressing CHO cell (AlphaScreen cAMP assay). Particulars: 0.5 h; test compound 10 µm, 37°C, 30 min, human GPR52-expressing CHO(dhfr-) cells; 100% = cAMP with 1 µM N-(2-hydroxyethyl)-3-[2-[3-(trifluoromethyl)benzyl]-1-benzofuran-4-yl]benzamide, 0% = DMSO; read-out: GPR52 agonist activity (%). It is filed as cell-based. How it is done:
Increase of intracellular cAMP concentration in human GPR52-expressing CHO cell
Using OptiPlate-384 (PerkinElmer Inc.), 1×10^4 human GPR52-expressing CHO(dhfr-) cells were incubated together with a test compound ([…]) in an assay buffer (30 µL, HBSS (containing Ca^2+ and Mg^2+), 0.5% BSA, 100 µM IBMX, 100 µM Ro20-1724, 5 mM HEPES (pH 7.55)) at 37°C for 30 min. Thereafter, according to the protocol of AlphaScreen cAMP Assay Kit (PerkinElmer Inc.), the intracellular cAMP concentration was measured by EnVision (PerkinElmer Inc.). The GPR52 agonist activity was calculated, assuming the intracellular cAMP concentration in the presence of 1 µM N-(2-hydroxyethyl)-3-[2-[3-(trifluoromethyl)benzyl]-1-benzofuran-4-yl]benzamide to be 100% and assuming the intracellular cAMP concentration when DMSO was added instead of the test compound to be 0%.
As to `CCOC(=O)c1cc(C(=O)Nc2sc(Cc3cc(F)cc(Cl)c3)nc2C)n(C)n1` [Example 159, ethyl 5-{[2-(3-chloro-5-fluorobenzyl)-4-methyl-1,3-thiazol-5-yl]carbamoyl}-1-methyl-1H-pyrazole-3-carboxylate], the activation at 10 µM was determined as 71%. The same measure, in the same setting: as for `Cc1nc(Cc2cc(F)cc(Cl)c2)sc1NC(=O)c1c(Cl)cnn1C` [Example 206, 4-chloro-N-[2-(3-chloro-5-fluorobenzyl)-4-methyl-1,3-thiazol-5-yl]-1-methyl-1H-pyrazole-5-carboxamide], the figure is 74%.

For the compound `Cc1nc(Cc2cc(F)cc(C3CC3)c2)sc1NC(=O)c1ccnn1C` [Example 249, N-[2-(3-cyclopropyl-5-fluorobenzyl)-4-methyl-1,3-thiazol-5-yl]-1-methyl-1H-pyrazole-5-carboxamide], the activation at 10 µM is 99%. Regarding `CSc1ncccc1C(=O)Nc1sc(Cc2cccc(C(F)(F)F)c2)nc1C` [Example 76, 2-(methylsulfanyl)-N-{4-methyl-2-[3-(trifluoromethyl)-benzyl]-1,3-thiazol-5-yl}pyridine-3-carboxamide], the activation at 10 µM stood at 86%. As for `Cn1nccc1C(=O)Nc1sc(Cc2cccc(C(F)(F)F)c2)nc1CO` [Example 6, N-{4-(hydroxymethyl)-2-[3-(trifluoromethyl)benzyl]-1,3-thiazol-5-yl}-1-methyl-1H-pyrazole-5-carboxamide], the activation at 10 µM was 83%. Take `Cc1nc(Cc2cc(F)cc(Cl)c2)sc1NC(=O)c1cc(C(N)=O)nn1C` [Example 164, N^5-[2-(3-chloro-5-fluorobenzyl)-4-methyl-1,3-thiazol-5-yl]-1-methyl-1H-pyrazole-3,5-dicarboxamide]: the activation at 10 µM came to 80%. Turning to `Cc1nc(Cc2cccc(C(F)(F)F)c2)sc1NC(=O)c1cncn1C` [Example 43, 1-methyl-N-{4-methyl-2-[3-(trifluoromethyl)-benzyl]-1,3-thiazol-5-yl}-1H-imidazole-5-carboxamide], the activation at 10 µM came to 73%. As to `Cc1nc(Cc2cc(F)cc(Cl)c2)sc1NC(=O)c1cc(Cl)nn1C` [Example 149, 3-chloro-N-[2-(3-chloro-5-fluorobenzyl)-4-methyl-1,3-thiazol-5-yl]-1-methyl-1H-pyrazole-5-carboxamide], the activation at 10 µM amounted to 75%. Take `Cc1nc(Cc2cc(F)cc(Cl)c2)sc1NC(=O)c1cc(CN2CCOCC2)nn1C` [Example 238, N-[2-(3-chloro-5-fluorobenzyl)-4-methyl-1,3-thiazol-5-yl]-1-methyl-3-(morpholinomethyl)-1H-pyrazole-5-carboxamide monohydrochloride]: the activation at 10 µM stood at 80%. `CCc1nc(Cc2cccc(C(F)(F)F)c2)sc1NC(=O)c1ccnn1C` [Example 11, N-{4-ethyl-2-[3-(trifluoromethyl)benzyl]-1,3-thiazol-5-yl}-1-methyl-1H-pyrazole-5-carboxamide]: the activation at 10 µM came out at 92%. As to `C=Cc1nc(Cc2cccc(C(F)(F)F)c2)sc1NC(=O)c1ccnn1C` [Example 12, N-{4-ethenyl-2-[3-(trifluorornethyl)benzyl]-1,3-thiazol-5-yl}-1-methyl-1H-pyrazole-5-carboxamide], the activation at 10 µM was 75%. The same measure, in the same setting: as for `Cc1nc(Cc2cc(F)cc(Cl)c2)sc1NC(=O)c1ccnn1C(C)C` [Example 151, N-[2-(3-chloro-5-fluorobenzyl)-4-methyl-1,3-thiazol-5-yl]-1-(1-methylethyl)-1H-pyrazole-5-carboxamide], the figure is 69%; as for `Cc1nc(Cc2cc(F)cc(Cl)c2)sc1NC(=O)C1CCS(=O)(=O)C1` (centres unmarked) [Example 216, N-[2-(3-chloro-5-fluorobenzyl)-4-methyl-1,3-thiazol-5-yl]-tetrahydrothiophene-3-carboxamide 1,1-dioxide], 77%; as for `Cc1nc(Cc2cc(F)cc(Cl)c2)sc1NC(=O)c1cnn(C)c1` [Example 171, N-[2-(3-chloro-5-fluorobenzyl)-4-methyl-1,3-thiazol-5-yl]-1-methyl-1H-pyrazole-4-carboxamide], 70%. Still for that read-out and setting: as for `Cc1nc(Cc2cccc(C(F)(F)F)c2)sc1NC(=O)c1ccoc1C` [Example 40, 2-methyl-N-{4-methyl-2-[3-(trifluoromethyl)-benzyl]-1,3-thiazol-5-yl}furan-3-carboxamide], the figure is 80%. The same measure, in the same setting: as for `Cc1nc(Cc2cc(F)cc(Cl)c2)sc1NC(=O)c1c(C)ncn1C` [Example 179, N-[2-(3-chloro-5-fluorobenzyl)-4-methyl-1,3-thiazol-5-yl]-1,4-dimethyl-1H-imidazole-5-carboxamide], the figure is 80%; as for `Cc1nc(Cc2cc(F)cc(Cl)c2)sc1NC(=O)c1cc([N+](=O)[O-])nn1C` [Example 158, N-[2-(3-chloro-5-fluorobenzyl)-4-methyl-1,3-thiazol-5-yl]-1-methyl-3-nitro-1H-pyrazole-5-carboxamide], 69%; as for `Cc1nc(Cc2cc(F)cc(Cl)c2)sc1NC(=O)c1scnc1C` [Example 184, N-[2-(3-chloro-5-fluorobenzyl)-4-methyl-1,3-thiazol-5-yl]-4-methyl-1,3-thiazole-5-carboxamide], 87%. Take `CC(=O)Nc1cn(C)c(C(=O)Nc2sc(Cc3cc(F)cc(Cl)c3)nc2C)n1` [Example 176, 4-(acetylamino)-N-[2-(3-chloro-5-fluorobenzyl)-4-methyl-1,3-thiazol-5-yl]-1-methyl-1H-imidazole-2-carboxamide]: the activation at 10 µM was found to be 99%. Take `Cc1nc(Cc2cc(F)cc(Cl)c2)sc1NC(=O)c1ccnn1CC(C)C` [Example 162, N-[2-(3-chloro-5-fluorobenzyl)-4-methyl-1,3-thiazol-5-yl]-1-(2-methylpropyl)-1H-pyrazole-5-carboxamide]: the activation at 10 µM was 70%.

For `Cc1cc(C(=O)Nc2sc(Cc3cc(F)cc(Cl)c3)nc2C)n(C)n1` [Example 147, N-[2-(3-chloro-5-fluorobenzyl)-4-methyl-1,3-thiazol-5-yl]-1,3-dimethyl-1H-pyrazole-5-carboxamide], the activation at 10 µM came to 78%. Turning to `Cc1nc(Cc2cc(F)cc(Cl)c2)sc1NC(=O)c1cccn1C` [Example 185, N-[2-(3-chloro-5-fluorobenzyl)-4-methyl-1,3-thiazol-5-yl]-1-methyl-1H-pyrrole-2-carboxamide], the activation at 10 µM is 81%. On the same count and under the same terms, as for `Cc1nc(Cc2cc(F)cc(Cl)c2)sc1NC(=O)c1ccnn1CC(N)=O` [Example 234, 1-(carbamoylmethyl)-N-[2-(3-chloro-5-fluorobenzyl)-4-methyl-1,3-thiazol-5-yl]-1H-pyrazole-5-carboxamide], the figure is 78%. For the compound `Cc1nc(Cc2ccc(F)c(F)c2)sc1NC(=O)c1ccnn1C` [Example 160, N-[2-(3,4-difluorobenzyl)-4-methyl-1,3-thiazol-5-yl]-1-methyl-1H-pyrazole-5-carboxamide], the activation at 10 µM is 74%. For `Cc1nc(Cc2cc(F)cc(Cl)c2)sc1NC(=O)C1CCS(=O)(=O)CC1` [Example 208, N-[2-(3-chloro-5-fluorobenzyl)-4-methyl-1,3-thiazol-5-yl]-tetrahydro-2H-thiopyran-4-carboxamide 1,1-dioxide], the activation at 10 µM is 72%. On to `Cc1nc(Cc2cccc(C(F)(F)F)c2)sc1NC(=O)C1(C#N)CC1` [Example 39, 1-cyano-N-{4-methyl-2-[3-(trifluoromethyl)benzyl]-1,3-thiazol-5-yl}cyclopropanecarboxamide], for which the activation at 10 µM turned out to be 79%. As for `Cc1nc(Cc2cc(F)cc(Cl)c2)sc1NC(=O)c1cc(CO)nn1C` [Example 166, N-[2-(3-chloro-5-fluorobenzyl)-4-methyl-1,3-thiazol-5-yl]-3-(hydroxymethyl)-1-methyl-1H-pyrazole-5-carboxamide], the activation at 10 µM was 88%. For the compound `CCCCc1nc(Cc2cccc(C(F)(F)F)c2)sc1NC(=O)c1ccnn1C` [Example 16, N-{4-butyl-2-[3-(trifluoromethyl)benzyl]-1,3-thiazol-5-yl}-1-methyl-1H-pyrazole-5-carboxamide], the activation at 10 µM stood at 72%. In the case of `Cn1nccc1C(=O)Nc1sc(Cc2cccc(C(F)(F)F)c2)nc1C(F)(F)F` [Example 17, 1-methyl-N-{4-(trifluoromethyl)-2-[3-(trifluoromethyl)benzyl]-1,3-thiazol-5-yl}-1H-pyrazole-5-carboxamide], the activation at 10 µM is 94%.

For `COC(=O)[C@@H]1C[C@@H]1C(=O)Nc1sc(Cc2cc(F)cc(Cl)c2)nc1C` (relative stereo) [Example 190, methyl cis-2-{[2-(3-chloro-5-fluorobenzyl)-4-methyl-1,3-thiazol-5-yl]carbamoyl}cyclopropanecarboxylate], the activation at 10 µM was 82%. For `COc1cccc(Cc2nc(C)c(NC(=O)c3ccnn3C)s2)c1` [Example 219, N-[2-(3-methoxybenzyl)-4-methyl-1,3-thiazol-5-yl]-1-methyl-1H-pyrazole-5-carboxamide], the activation at 10 µM came out at 82%.

The assay is the same for the next values; noted with them: test compound 10 µm, 37°C, 30 min, human GPR52-expressing CHO(dhfr-) cells; 100% = cAMP with 1 µM N-(2-hydroxyethyl)-3-[2-[3-(trifluoromethyl)benzyl]-1-benzofuran-4-yl]benzamide, 0% = DMSO.
With `Cc1cc(C(=O)Nc2sc(Cc3cccc(C(F)(F)F)c3)nc2C)c(C)o1` [Example 26, 2,5-dimethyl-N-{4-methyl-2-[3-(trifluoromethyl)benzyl]-1,3-thiazol-5-yl}furan-3-carboxamide], the “GPR52 agonist activity (%)” value is 78%.
